SMILES strings stand for the structures. Where a name gives a salt, the structure may show the parent alone.

The target in the assay is GSK-3β (Homo sapiens, UniProt P49841). As to the kind of experiment: GSK3 scintillation proximity assay (SPA) kinase assay. The format is biochemical. The following applies: 20 nM kinase, 2.5 uM ATP, biotinylated glycogen synthase peptide, 40 minutes at room temperature; -log IC50 in Molar; read-out: GSK-3 pIC50 (converted). An excerpt: The phosphorylated biotinylated peptide is then captured onto streptavidin coated scintillation proximity assay (SPA) beads from Amersham Technology, where the signal from the ^33P is amplified via the scintillant contained in the beads.
GSK-3β, sequence (P49841 whole entry, species assumed): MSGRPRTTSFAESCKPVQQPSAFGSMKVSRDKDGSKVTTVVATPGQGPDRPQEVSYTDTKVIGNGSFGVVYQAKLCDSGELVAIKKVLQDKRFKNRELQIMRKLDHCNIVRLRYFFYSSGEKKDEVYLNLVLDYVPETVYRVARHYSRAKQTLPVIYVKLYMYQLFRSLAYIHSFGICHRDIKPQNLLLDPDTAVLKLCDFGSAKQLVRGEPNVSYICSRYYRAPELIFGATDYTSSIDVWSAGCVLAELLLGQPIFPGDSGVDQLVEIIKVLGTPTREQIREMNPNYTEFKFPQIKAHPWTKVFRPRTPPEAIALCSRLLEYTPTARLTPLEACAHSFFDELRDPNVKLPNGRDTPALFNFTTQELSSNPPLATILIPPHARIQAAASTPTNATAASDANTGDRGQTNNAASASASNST
GSK-3β is commercially available or may be cloned and expressed in E. coli using standard techniques to produce soluble, active protein. The production of active protein involves purification in two steps using Metal Chelate and Ion Exchange Chromatography. Protein eluting from Ion Exchange provides >90% pure product that may then be concentrated for use in high throughput screening.
The kinase was assayed at a concentration of 20 nM final in 100 mM HEPES, pH 7.2 containing 10 mM magnesium chloride, 0.1 mg/mL bovine serum albumin, 1 mM dithiothreitol, 0.3 mg/mL heparin, 2.8 uM peptide substrate, 2.5 uM ATP, and 0.2 uCi/well [[…]-^33P]-ATP. After 40 minutes incubation at room temperature, the reaction was stopped by addition of 100 mM EDTA and […] in 100 mM HEPES, pH7.2 followed by an additional solution of diluted Streptavidin coated SPA beads in PBS, pH 7.2 to give a final concentration of 0.25 mg of beads per assay well in a 96-well microtiter plate.
10 mM stock solutions of the compounds of the invention in 100% DMSO are generated as a first step in the screening process. The second step involves the creation of dose response plates where these compounds are diluted 10-fold in 100% DMSO to 1 mM concentrations and subsequently serially diluted 3-fold in 100% DMSO across the plate by automated liquid handling such that the final top concentration of inhibitor is 0.033 mM in the 30 uL kinase assay. The third step involves the creation of the assay plates. This is achieved by transferring 1 uL of the compounds to assay plates by automated liquid handling. The fourth step is to perform the assay as described and count the resulting plates in the Packard TopCount NXT microplate scintillation and luminescence counter.
The final step is data acquisition and analysis where IC50 values are generated for each compound by normalizing curve data to the equation 100*(U1−C2)/(C1−C2) (where U1 is the cpm value, C2 is the background, and C1 is the maximum number of counts), then fitting the normalized data to the equation y=Vmax*(1−(x/(K+x))). The IC50 values were converted to pIC50 values, i.e., −log IC50 in Molar concentration. The data is expressed below in Table 1.
(In general: Scintillation proximity formats need no separation of bound from free tracer.)
With `COC(=O)c1cccc(/C=N/Nc2ncnc3c2cnn3-c2ccccc2)c1` [Example 3, Methyl 3-{(E)-[(1-phenyl-1H-pyrazolo[3,4-d]pyrimidin-4-yl)hydrazono]methyl}benzoate], the IC50 was 100 to 1000 nM. The value for `C(=N\Nc1ncnc2c1cnn2-c1ccccc1)/c1cnc2ccccc2c1` [Example 4, Quinoline-3-carbaldehyde (1-phenyl-1H-pyrazolo[3,4-d]pyrimidin-4-yl)hydrazone] was 100 to 1000 nM.

As for `CC(C)(C)OC(=O)N1CCC(/C=N/Nc2ncnc3c2cnn3-c2ccccc2)CC1` [Example 8, tert-butyl 4-{(E)-[(1-phenyl-1H-pyrazolo[3,4-d]pyrimidin-4-yl)hydrazono]methyl}piperidine-1-carboxylate], the IC50 was 100 to 1000 nM.

On to `C(=N\Nc1ncnc2c1cnn2-c1ccccc1)/C1CCNCC1` [Example 9, Piperidine-4-carbaldehyde (1-phenyl-1H-pyrazolo[3,4-d]pyrimidin-4-yl)hydrazone trifluoroacetate], for which the IC50 is 100 to 1000 nM. The value for `CC(=O)Nc1ccc(/C=N/Nc2ncnc3c2cnn3-c2ccccc2)cn1` [Example 10, N-(5-{(E)-[2-(1-phenyl-1H-pyrazolo[3,4-d]pyrimidin-4-yl)hydrazono]methyl}pyridin-2-yl)acetamide] was less than 100 nM; that for `Nc1ccc(/C=N/Nc2ncnc3c2cnn3-c2ccccc2)cn1` [Example 12, 6-aminonicotinaldehyde (1-phenyl-1H-pyrazolo[3,4-d]pyrimidin-4-yl)hydrazone trifluoroacetate] was 100 to 1000 nM; that for `CN(C)c1ccc(/C=N/Nc2ncnc3c2cnn3-c2ccccc2)cn1` [Example 13, 6-(dimethylamino)nicotinaldehyde (1-phenyl-1H-pyrazolo[3,4-d]pyrimidin-4-yl)hydrazone] was 1000 to 10000 nM. As for `Clc1cc(/C=N/Nc2ncnc3c2cnn3-c2ccccc2)ccn1` [Example 14, 2-chloroisonicotinaldehyde (1-phenyl-1H-pyrazolo[3,4-d]pyrimidin-4-yl)hydrazone], the figure is 100 to 1000 nM. Take `COc1cc(/C=N/Nc2ncnc3c2cnn3-c2ccccc2)ccn1` [Example 15, 2-methoxyisonicotinaldehyde (1-phenyl-1H-pyrazolo[3,4-d]pyrimidin-4-yl)hydrazone]: the IC50 was 100 to 1000 nM. Regarding `Clc1ccc(/C=N/Nc2ncnc3c2cnn3-c2ccccc2)cn1` [Example 16, 6-chloronicotinaldehyde (1-phenyl-1H-pyrazolo[3,4-d]pyrimidin-4-yl)hydrazone], the IC50 is less than 100 nM. With `COc1ccc(/C=N/Nc2ncnc3c2cnn3-c2ccccc2)cn1` [Example 17, 6-methoxynicotinaldehyde (1-phenyl-1H-pyrazolo[3,4-d]pyrimidin-4-yl)hydrazone], the IC50 is 100 to 1000 nM. The value for `CN(C)CCOc1ccc(/C=N/Nc2ncnc3c2cnn3-c2ccccc2)cn1` [Example 18, 6-[2-(dimethylamino)ethoxy]nicotinaldehyde (1-phenyl-1H-pyrazolo[3,4-d]pyrimidin-4-yl)hydrazone] was 100 to 1000 nM; that for `CN(C)CCNc1ccc(/C=N/Nc2ncnc3c2cnn3-c2ccccc2)cn1` [Example 19, 6-{[2-(dimethylamino)ethyl]amino}nicotinaldehyde (1-phenyl-1H-pyrazolo[3,4-d]pyrimidin-4-yl)hydrazone hydrochloride] was less than 100 nM. Turning to `O=S(=O)(NCCN1CCOCC1)c1ccc(/C=N/Nc2ncnc3c2cnn3-c2ccccc2)cc1` [Example 21, N-(2-morpholin-4-ylethyl)-4-{(E)-[(1-phenyl-1H-pyrazolo[3,4-d]pyrimidin-4-yl)hydrazono]methyl}benzenesulfonamide], the IC50 was less than 100 nM. As for `CN(C)CCNS(=O)(=O)c1ccc(/C=N/Nc2ncnc3c2cnn3-c2ccccc2)cc1` [Example 22, N[2-(dimethylamino)ethyl]-4-[{(E)[(1-phenyl-1H-pyrazolo[3,4-d]pyrimidin-4-yl)hydrazono]methyl}benzenesulfonamide hydrochloride], the figure is less than 100 nM; as for `O=S(=O)(NCCCN1CCCC1)c1ccc(/C=N/Nc2ncnc3c2cnn3-c2ccccc2)cc1` [Example 23, 4-{(E)-[(1-phenyl-1H-pyrazolo[3,4-d]pyrimidin-4-yl)hydrazono]methyl}-N-(3-pyrrolidin-1-ylpropyl)benzenesulfonamide], less than 100 nM.

With `O=C(NCc1ccccn1)c1ccc(/C=N/Nc2ncnc3c2cnn3-c2ccccc2)cc1` [Example 28, 4-{(E)-[(1-phenyl-1H-pyrazolo[3,4-d]pyrimidin-4-yl)hydrazono]methyl}-N-(pyridin-2-ylmethyl)benzamide], the IC50 was 100 to 1000 nM. For the compound `CN(C)CCNC(=O)c1cccc(/C=N/Nc2ncnc3c2cnn3-c2ccccc2)c1` [Example 40, N-[2-(dimethylamino)ethyl]-3-{(E)-[(1-phenyl-1H-pyrazolo[3,4-d]pyrimidin-4-yl)hydrazono]methyl}benzamide], the IC50 is less than 100 nM. As for `CS(=O)(=O)CCNC(=O)c1cccc(/C=N/Nc2ncnc3c2cnn3-c2ccccc2)c1` [Example 41], the figure is 100 to 1000 nM; as for `O=C(NCCN1CCOCC1)c1cccc(/C=N/Nc2ncnc3c2cnn3-c2ccccc2)c1` [Example 42, N-(2-morpholin-4-ylethyl)-3-{(E)-[(1-phenyl-1H-pyrazolo[3,4-d]pyrimidin-4-yl)hydrazono]methyl}benzamide], 100 to 1000 nM; as for `CCc1ccc(/C=N/Nc2ncnc3c2cnn3-c2ccccc2)o1` [Example 57, 5-Ethyl-2-furaldehyde [1-(phenyl)-1H-pyrazolo[3,4-d]pyrimidin-4-yl]hydrazone], 1000 to 10000 nM. In the case of `Cc1ccc(/C=N/Nc2ncnc3c2cnn3-c2ccccc2)o1` [Example 59, 5-Methyl-2-furaldehyde [1-(phenyl)-1H-pyrazolo[3,4-d]pyrimidin-4-yl]hydrazone], the IC50 is 100 to 1000 nM. For the compound `C(=N\Nc1ncnc2c1cnn2-c1ccccc1)/c1ccnc2ccccc12` [Example 62, 4-Quinolinecarboxaldehyde [1-(phenyl)-1H-pyrazolo[3,4-d]pyrimidin-4-yl]hydrazone], the IC50 was 1000 to 10000 nM.
